Reference: publication PMC7419507, “In vitro Cas9-assisted editing of modular polyketide synthase genes to produce desired natural product derivatives” (Nature Communications, 2020)
Values joined by “and” are separate entries in the source; they are usually repeats but may differ in a detail not shown here. Identical values can stand only once.

Columns and labels:
FKBP12 and mTOR = target: T1, FKBP12 and mTOR (Homo sapiens, UniProt P42345+P62942); test: Fluoppi analysis: induction of FKBP12-mTOR complex formation in transfected HeLa cells; type: cell-based; conditions: for Foci intensity: raw data, one replicate per line
T1 construct: host or cells: HeLa cells
In short: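 Complex formation read as fluorescent foci: foci intensity over total per-cell intensity, imaged (×20, 9 fields/well) after fixation and Hoechst stain, giving EC50. Cells: HeLa transiently expressing hAG-mTOR and Ash-FKBP12, exposed to compound concentrations for 1 h at 37 °C.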

[1] = Cytotoxicity assay (CellTiter-Glo, 72 h), Jurkat; type: cell-based; conditions: human, Jurkat cells (T lymphoma), raw data (replicates)
In short: (§1)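 Cells were seeded at 1000 cells/well and allowed 4 h at 37 °C, 5% CO2 before 2-fold compound dilutions in DMSO were added (0.5% final DMSO). After 72 h exposure, viability was read by CellTiter-Glo luminescence.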

T lymphoma Jurkat cells = test: Cytotoxicity assay (CellTiter-Glo, 72 h), Jurkat; type: cell-based; conditions: raw data (replicates)
In short: as §1

[2] = Cytotoxicity assay (CellTiter-Glo, 72 h), SKOV-3; type: cell-based, human; conditions: human, raw replicate data, read-out: SKOV3 viability (%)
In short: as §1

[3] = system: human ovarian adenocarcinoma SKOV-3 cells; test: Cytotoxicity assay (CellTiter-Glo, 72 h), SKOV-3; type: cell-based; conditions: raw replicate data
In short: as §1

T1 sequence (P42345 2025-2114 limits assumed): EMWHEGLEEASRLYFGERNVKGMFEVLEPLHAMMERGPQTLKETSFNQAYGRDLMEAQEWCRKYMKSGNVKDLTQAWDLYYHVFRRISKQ
T1 sequence (P62942 whole entry): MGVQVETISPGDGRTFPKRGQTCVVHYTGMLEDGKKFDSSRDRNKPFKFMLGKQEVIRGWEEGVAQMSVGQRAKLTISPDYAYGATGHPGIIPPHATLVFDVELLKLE

For `CO[C@@H]1C[C@H](C[C@@H](C)[C@@H]2CC(=O)[C@H](C)/C=C(\C)[C@@H](O)[C@@H](OC)C(=O)[C@H](C)C[C@H](C)/C=C/C=C/C=C(\C)[C@H](O)C[C@@H]3CC[C@@H](C)[C@@](O)(O3)C(=O)C(=O)N3CCCC[C@H]3C(=O)O2)CC[C@H]1O` [Compound 17, (16R)-16-O-demethyl rapamycin], the “PPI-inducing (binding enhancing) activity between FKBP12 and mTOR compared with rapamycin (1), in words” value (FKBP12 and mTOR; Fluoppi) was “relatively weaker activities”, the EC50 (FKBP12 and mTOR; Fluoppi, HeLa cells, 1 h treatment, three independent biological replicates, read-out: EC50, induction of the formation of FKBP-mTOR complex) was 58 nM and the Foci intensity (FKBP12 and mTOR; conc 9.53674e-5 uM) was 0.008575 and 0.02543 and 0.01782. The Foci intensity (FKBP12 and mTOR; conc 0.000190735 uM) was 0.01164 and 0.0145 and 0.01487, the Foci intensity (FKBP12 and mTOR; conc 0.00038147 uM) was 0.01856 and 0.01046 and 0.003947 and the Foci intensity (FKBP12 and mTOR; conc 0.000762939 uM) was 0.01936 and 0.005776 and 0.02867. For the same compound, the Foci intensity (FKBP12 and mTOR; conc 0.00152588 uM) was 0.005895 and 0.00599 and 0.02244, the Foci intensity (FKBP12 and mTOR; conc 0.00305176 uM) was 0.01605 and 0.01212 and 0.008772 and the Foci intensity (FKBP12 and mTOR; conc 0.00610352 uM) was 0.0303 and 0.01224 and 0.02086. For the same compound, the Foci intensity (FKBP12 and mTOR; conc 0.012207 uM) was 0.01472 and 0.01188 and 0.01532, the Foci intensity (FKBP12 and mTOR; conc 0.0244141 uM) was 0.02138 and 0.01399 and 0.02345 and the Foci intensity (FKBP12 and mTOR; conc 0.0488281 uM) was 0.1099 and 0.1021 and 0.1573. The Foci intensity (FKBP12 and mTOR; conc 0.0976562 uM) was 0.2733 and 0.3147 and 0.3434, the Foci intensity (FKBP12 and mTOR; conc 0.195312 uM) was 0.354 and 0.3591 and 0.4502 and the Foci intensity (FKBP12 and mTOR; conc 0.390625 uM) was 0.4005 and 0.429 and 0.3736. The Foci intensity (FKBP12 and mTOR; conc 0.78125 uM) was 0.395 and 0.3804 and 0.4169, the Foci intensity (FKBP12 and mTOR; conc 1.5625 uM) was 0.3124 and 0.2927 and 0.3257 and the Foci intensity (FKBP12 and mTOR; conc 3.125 uM) was 0.3411 and 0.3385 and 0.2558. For the same compound, the Foci intensity (FKBP12 and mTOR; conc 6.25 uM) was 0.3119 and 0.3692 and 0.3726, the Foci intensity (FKBP12 and mTOR; conc 12.5 uM) was 0.3802 and 0.3948 and 0.3075 and the Foci intensity (FKBP12 and mTOR; conc 25 uM) was 0.3555 and 0.3578 and 0.2982. The Foci intensity (FKBP12 and mTOR; conc 50 uM) was 0.2808 and 0.2653 and 0.2658, the viability at 72 h, 9.53674e-05 uM ([1]; conc 9.53674e-5 uM) was 98.1% and the viability at 72 h, 0.000190735 uM ([1]; conc 0.000190735 uM) was 101%. The viability at 72 h, 0.00038147 uM ([1]; conc 0.00038147 uM) was 107%, the viability at 72 h, 0.000762939 uM ([1]; conc 0.000762939 uM) was 100% and the viability at 72 h, 0.00152588 uM ([1]; conc 0.00152588 uM) was 106%. The viability at 72 h, 0.00305176 uM ([1]; conc 0.00305176 uM) was 95.3%, the viability at 72 h, 0.00610352 uM ([1]; conc 0.00610352 uM) was 96.3% and the viability at 72 h, 0.012207 uM ([1]; conc 0.012207 uM) was 74.7%. For the same compound, the viability at 72 h, 0.0244141 uM ([1]; conc 0.0244141 uM) was 79%, the viability at 72 h, 0.0488281 uM ([1]; conc 0.0488281 uM) was 40% and the viability at 72 h, 0.0976562 uM ([1]; conc 0.0976562 uM) was 39.6%. It also gave a viability at 72 h, 0.195312 uM ([1]; conc 0.195312 uM) of 36.3%, a viability at 72 h, 0.390625 uM ([1]; conc 0.390625 uM) of 32.4% and a viability at 72 h, 0.78125 uM ([1]; conc 0.78125 uM) of 32.4%. The viability at 72 h, 1.5625 uM ([1]; conc 1.5625 uM) was 29.2%, the viability at 72 h, 3.125 uM ([1]; conc 3.125 uM) was 28.8% and the viability at 72 h, 6.25 uM ([1]; conc 6.25 uM) was 28.5%. The viability at 72 h, 12.5 uM ([1]; conc 12.5 uM) was 30.5%, the viability at 72 h, 25 uM ([1]; conc 25 uM) was 28.8% and the viability at 72 h, 50 uM ([1]; conc 50 uM) was 21.6%. The “Jurkat viability (%)” value (T lymphoma Jurkat cells; conc 9.53674e-5 uM) was 104.2% and 104.9%, the “Jurkat viability (%)” value (T lymphoma Jurkat cells; conc 0.000190735 uM) was 98.3% and 107.4% and the “Jurkat viability (%)” value (T lymphoma Jurkat cells; conc 0.00038147 uM) was 107.2% and 107.3%. For the same compound, the “Jurkat viability (%)” value (T lymphoma Jurkat cells; conc 0.000762939 uM) was 99.4%, the “Jurkat viability (%)” value (T lymphoma Jurkat cells; conc 0.00152588 uM) was 99.3% and 104.0% and the “Jurkat viability (%)” value (T lymphoma Jurkat cells; conc 0.00305176 uM) was 97.0% and 104.1%. The “Jurkat viability (%)” value (T lymphoma Jurkat cells; conc 0.00610352 uM) was 89.4% and 97.3%, the “Jurkat viability (%)” value (T lymphoma Jurkat cells; conc 0.012207 uM) was 81.9% and 78.2% and the “Jurkat viability (%)” value (T lymphoma Jurkat cells; conc 0.0244141 uM) was 72.3% and 67.5%. The “Jurkat viability (%)” value (T lymphoma Jurkat cells; conc 0.0488281 uM) was 50.1% and 57.1%, the “Jurkat viability (%)” value (T lymphoma Jurkat cells; conc 0.0976562 uM) was 39.4% and 41.6% and the “Jurkat viability (%)” value (T lymphoma Jurkat cells; conc 0.195312 uM) was 33.7% and 37.9%. For the same compound, the “Jurkat viability (%)” value (T lymphoma Jurkat cells; conc 0.390625 uM) was 35.4% and 34.2%, the “Jurkat viability (%)” value (T lymphoma Jurkat cells; conc 0.78125 uM) was 31.2% and 32.6% and the “Jurkat viability (%)” value (T lymphoma Jurkat cells; conc 1.5625 uM) was 28.2% and 33.2%. The “Jurkat viability (%)” value (T lymphoma Jurkat cells; conc 3.125 uM) was 27.7% and 29.4%, the “Jurkat viability (%)” value (T lymphoma Jurkat cells; conc 6.25 uM) was 29.5% and the “Jurkat viability (%)” value (T lymphoma Jurkat cells; conc 12.5 uM) was 26.8%. For the same compound, the “Jurkat viability (%)” value (T lymphoma Jurkat cells; conc 25 uM) was 30.6% and 29.0%, the “Jurkat viability (%)” value (T lymphoma Jurkat cells; conc 50 uM) was 21.7% and 20.3% and the viability at 72 h, 9.53674e-05 uM ([2]; SKOV-3 cells (ovarian adenocarcinoma), conc 9.53674e-5 uM) was 108%. For the same compound, the viability at 72 h, 0.000190735 uM ([2]; SKOV-3 cells (ovarian adenocarcinoma), conc 0.000190735 uM) was 88.6%, the viability at 72 h, 0.00038147 uM ([2]; SKOV-3 cells (ovarian adenocarcinoma), conc 0.00038147 uM) was 109% and the viability at 72 h, 0.000762939 uM ([2]; SKOV-3 cells (ovarian adenocarcinoma), conc 0.000762939 uM) was 108%. It also gave a viability at 72 h, 0.00152588 uM ([2]; SKOV-3 cells (ovarian adenocarcinoma), conc 0.00152588 uM) of 108%, a viability at 72 h, 0.00305176 uM ([2]; SKOV-3 cells (ovarian adenocarcinoma), conc 0.00305176 uM) of 107% and a viability at 72 h, 0.00610352 uM ([2]; SKOV-3 cells (ovarian adenocarcinoma), conc 0.00610352 uM) of 103%. For the same compound, the viability at 72 h, 0.012207 uM ([2]; SKOV-3 cells (ovarian adenocarcinoma), conc 0.012207 uM) was 97.7%, the viability at 72 h, 0.0244141 uM ([2]; SKOV-3 cells (ovarian adenocarcinoma), conc 0.0244141 uM) was 95.9% and the viability at 72 h, 0.0488281 uM ([2]; SKOV-3 cells (ovarian adenocarcinoma), conc 0.0488281 uM) was 84.3%. It also gave a viability at 72 h, 0.0976562 uM ([2]; SKOV-3 cells (ovarian adenocarcinoma), conc 0.0976562 uM) of 77.9%, a viability at 72 h, 0.195312 uM ([2]; SKOV-3 cells (ovarian adenocarcinoma), conc 0.195312 uM) of 70% and a viability at 72 h, 0.390625 uM ([2]; SKOV-3 cells (ovarian adenocarcinoma), conc 0.390625 uM) of 78.2%. It also gave a viability at 72 h, 12.5 uM ([2]; SKOV-3 cells (ovarian adenocarcinoma), conc 12.5 uM) of 65%, a viability at 72 h, 25 uM ([2]; SKOV-3 cells (ovarian adenocarcinoma), conc 25 uM) of 64.3% and a viability at 72 h, 50 uM ([2]; SKOV-3 cells (ovarian adenocarcinoma), conc 50 uM) of 62.5%. It also gave a viability at 72 h, 0.78125 uM ([2]; SKOV-3 ovarian adenocarcinoma cells, conc 0.78125 uM) of 71.6%, a viability at 72 h, 1.5625 uM ([2]; SKOV-3 ovarian adenocarcinoma cells, conc 1.5625 uM) of 72.2% and a viability at 72 h, 3.125 uM ([2]; SKOV-3 ovarian adenocarcinoma cells, conc 3.125 uM) of 67.3%. For the same compound, the viability at 72 h, 6.25 uM ([2]; SKOV-3 ovarian adenocarcinoma cells, conc 6.25 uM) was 66.2%, the “SKOV3 viability (%)” value ([3]; conc 9.53674e-5 uM) was 109.3% and 114.5% and the “SKOV3 viability (%)” value ([3]; conc 0.000190735 uM) was 90.8% and 99.6%. For the same compound, the “SKOV3 viability (%)” value ([3]; conc 0.00038147 uM) was 115.4% and 113.9%, the “SKOV3 viability (%)” value ([3]; conc 0.000762939 uM) was 109.0% and 102.3% and the “SKOV3 viability (%)” value ([3]; conc 0.00152588 uM) was 112.3% and 106.1%. For the same compound, the “SKOV3 viability (%)” value ([3]; conc 0.00305176 uM) was 107.9%, the “SKOV3 viability (%)” value ([3]; conc 0.00610352 uM) was 101.8% and 106.6% and the “SKOV3 viability (%)” value ([3]; conc 0.012207 uM) was 96.6% and 104.0%. The “SKOV3 viability (%)” value ([3]; conc 0.0244141 uM) was 95.8%, the “SKOV3 viability (%)” value ([3]; conc 0.0488281 uM) was 79.4% and 88.5% and the “SKOV3 viability (%)” value ([3]; conc 0.0976562 uM) was 86.2% and 76.7%. For the same compound, the “SKOV3 viability (%)” value ([3]; conc 0.195312 uM) was 69.8% and 72.4%, the “SKOV3 viability (%)” value ([3]; conc 0.390625 uM) was 81.8% and 79.5% and the “SKOV3 viability (%)” value ([3]; conc 0.78125 uM) was 70.7%. For the same compound, the “SKOV3 viability (%)” value ([3]; conc 1.5625 uM) was 65.2% and 67.1%, the “SKOV3 viability (%)” value ([3]; conc 3.125 uM) was 69.1% and the “SKOV3 viability (%)” value ([3]; conc 6.25 uM) was 64.7% and 66.1%. The “SKOV3 viability (%)” value ([3]; conc 12.5 uM) was 62.1% and 61.3%, the “SKOV3 viability (%)” value ([3]; conc 25 uM) was 65.7% and 67.6% and the “SKOV3 viability (%)” value ([3]; conc 50 uM) was 57.2% and 61.6%.
